Results reported in patent US20050215635A1, “Diarylheptanoid compounds and uses thereof” (priority 2004, published 2005).

What was measured:
[1] = Radical-scavenging activity by DPPH
Description: In this example, the 2,2-diphenyl-1-picrylhydrazyl (DPPH) method was used to explore the capacity of five isolated compounds of the invention to act as free radical scavengers. The DPPH assay has been extensively used to test the free radical scavenging ability of various chemicals (Brand-williams, W. et al., Wiss. Technol. 1995, 28, 25-30; Dinis, T. C. et al., Arch. Biochem. Biophys. 1994, 315, 161-169.)
This method was adapted from that of Brand-Williams, et al. (Brand-williams, W.; Cuvelier, M. E.; Berset, C. Lebensm. Wiss. Technol. 1995, 28, 25-30.). At least seven different concentrations were prepared for each purified compound. 25 μl pure compound solution and 975 μL DPPH solution (63.4 μM) were mixed together and left in the dark for 30 min. Each sample was triplicated and the values were averaged. The absorbance of the samples was measured at 515 nm against methanol solution without DPPH as the blank reference. The absorbance was measured every 30 min until the reaction reached a plateau. The reaction kinetics were then plotted using the above data and the percentage of DPPH remaining at the steady state was obtained. IC50 values were determined by extrapolation from linear regression analysis.
DPPH, 2,2-Diphenyl-1-picrylhydrazyl (DPPH.), is a stable radical in methanol solution. In its radical form, DPPH. absorbs at 515 nm, but the absorption ceases upon reduction by an antioxidant (AH) or a radical species (R.) (Brand-williams, W.; Cuvelier, M. E.; Berset, C. Lebensm. Wiss. Technol. 1995, 28, 25-30.). The concentration of tested chemicals needed to decrease the initial DPPH. concentration by 50% (IC50) is a parameter widely used to measure the antioxidant potential (Kanner, J.; Frankel, E.; German, B.; Kinsella, J. e. J. Agric. Food Chem. 1994, 42, 64-69, Vinson, J. A.; Dabbagh, Y. A.; Serry, M. M. J. Agric. Food Chem. 1995a, 43,2800-2802.). The lower the IC50, the higher the free radical scavenging power.

[2] = system: IL-1β production from human PBMCs; assay: IL-1β ELISA in supernatants of LPS-treated human PBMCs; format: cell-based; conditions: 18 hrs
Method: The PBMCs were separated from peripheral blood of normal healthy human volunteers. […] Supernatant was harvested after 18 hrs and stored at −70° C. until tested. The quantity of IL-1β and TNF-α present in supernatants was estimated by ELISA (R&D systems, MN, USA) following manufacturer's instruction. A standard curve was obtained by plotting known concentrations of recombinant human IL-1β and TNF-α vs absorbance at 450 nm.
Each data point represents mean+standard deviation (SD) of 3 replicates.

COX-2 mRNA expression = assay: Relative RT-PCR of COX-2 mRNA expression in RAW 264.7 cells; format: cell-based, mouse; conditions: RAW 264.7, 12 hrs
Method: FIG. 4A and B: Effect of HMP on mRNA expression of iNOS and COX-2. Fig. A, RAW 264.7 cells were incubated in the presence of LPS (0.5 μg/ml) with or without HMP (12.5, 25 μM) for 12 hrs. Total RNA isolated from RAW 264.7 cells after 12 hrs of treatments with LPS alone or with various concentration of HMP was reverse transcribed to make cDNA and 2 μl (for iNOS) or 1 μl (for COX-2) of cDNA was amplified using gene specific primer (Ambion Inc). Ten μl of each PCR reaction was resolved in 2% agarose gel. Lane 1, control; 2. LPS (0.5 μg/ml); 3, LPS+HMP (12.5 μM) and Lane, 4 LPS+HMP (25 μM). Fig. B, Histogram showing densitometric analysis of iNOS and COX-2 mRNA expression. […] This experiment was repeated 3 times separately with similar observation.
The RAW 264.7 cells were cultured (10^6/well) in 6 well plate for 24 hrs and then medium was replaced by fresh medium and different concentrations of HMP either alone or in combination of LPS was added and further cultured for 12 hrs. […] Linear range of amplification of iNOS and COX-2 cDNA (2 μl for COX-2 and 1μl for iNOS of RT reaction mixture) was determined using gene specific primers from Ambion Inc (TX, USA), following manufacturer's instruction. The optimum amount of 18S primer and competitor for iNOS and COX-2 gene were also determined as per manufacturer's instruction. […]

## COc1cc(CC/C=C/C(=O)CCc2ccccc2)ccc1O [AO-4, 7-(4″-hydroxy-3″-methoxyphenyl)-1-phenyl-hept-4-en-3-one]
[1]; DPPH 63.4 μM in methanol, absorbance at 515 nm, steady state, read-out: IC50 (μM) of Diarylheptanoids in Scavenging DPPH Free Radicals
  IC50: 13.7 µM
[1]; DPPH assay
  free radical scavenging, DPPH data (in words): very good free radical scavengers
[2]; HMP 6.25 μM + LPS (10 ng/ml)
  IL-1β: 339.21 ± 10.53 pg/mL
[2]; HMP 6.25 μM alone
  IL-1β: 22.12 ± 3.33 pg/mL
[2]; HMP 12.5 μM + LPS (10 ng/ml)
  IL-1β: 113.43 ± 3.81 pg/mL
[2]; HMP 12.5 μM alone
  IL-1β: 24.45 ± 1.03 pg/mL
[2]; HMP 25 μM + LPS (10 ng/ml)
  IL-1β: 77.27 ± 4.6 pg/mL
[2]; HMP 25 μM alone
  IL-1β: 23.28 ± 1.41 pg/mL
[2]; HMP 6.25-25 μM + LPS
  LPS induced secretion of IL-1β (in words): significantly in dose dependent fashion
COX-2 mRNA expression; HMP 12.5 μM + LPS (0.5 μg/ml)
  inhibition of LPS induced COX-2 mRNA expression (densitometry, ratio to 18 S RNA): 27.3%
COX-2 mRNA expression; HMP 25 μM + LPS (0.5 μg/ml)
  inhibition of LPS induced COX-2 mRNA expression (densitometry, ratio to 18 S RNA): 54.6%
